Test results taken from PubChem BioAssay AID248 (DTP/NCI, 2004).
Several values for one entry are separate records, joined by “and”; a condition that tells them apart may be missing. Identical values can stand only once. Inconclusive results and toxic doses are left out. No stated cut-off is given here; in the data, active means T/C of 150% or more; inactive means T/C below 125%.

System: L1210 leukemia ip in BDF1 mice, survival T/C
Test: NCI In Vivo Anticancer Drug Screen. Data for tumor model L1210 Leukemia (intraperitoneal) in B6D2F1 (BDF1) mice
Conditions: endpoint: mean survival time, higher = longer survival
Outline: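 Survival endpoint. Drug-treated group vs vehicle group, expressed as T divided by C. Tumor passaged by transplantation.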

[1] = dose: 100.0 mg/kg/injection, schedule: Q04DX002 (ip), vehicle: saline
[2] = dose: 200.0 mg/kg/injection, schedule: Q04DX002 (ip), vehicle: saline
[3] = dose: 50.0 mg/kg/injection, schedule: Q01DX009 (ip), vehicle: Klucel (hydroxypropylcellulose) (HPC)
[4] = dose: 100.0 mg/kg/injection, schedule: Q01DX009 (ip), vehicle: Klucel (hydroxypropylcellulose) (HPC)
[5] = dose: 100.0 mg/kg/injection, schedule: Q04DX003 (ip), vehicle: saline
[6] = dose: 100.0 mg/kg/injection, schedule: Q01DX001 (ip), vehicle: carboxymethylcellulose (CMC)
[7] = dose: 200.0 mg/kg/injection, schedule: Q01DX001 (ip), vehicle: carboxymethylcellulose (CMC)
[8] = dose: 400.0 mg/kg/injection, schedule: Q01DX001 (ip), vehicle: carboxymethylcellulose (CMC)
[9] = dose: 100.0 mg/kg/injection, schedule: Q01DX001 (ip), vehicle: saline
[10] = dose: 25.0 mg/kg/injection, schedule: Q01DX009 (ip), vehicle: saline
[11] = dose: 25.0 mg/kg/injection, schedule: Q04DX003 (ip), vehicle: saline
[12] = dose: 50.0 mg/kg/injection, schedule: Q01DX009 (ip), vehicle: saline
[13] = dose: 50.0 mg/kg/injection, schedule: Q04DX003 (ip), vehicle: saline
[14] = dose: 100.0 mg/kg/injection, schedule: Q01DX009 (ip), vehicle: saline
[15] = dose: 6.25 mg/kg/injection, schedule: Q01DX009 (ip), vehicle: saline

Measured: T/C

COc1ccc([N+](=O)[O-])cc1NC(=O)CCCCCCCCC(=O)Nc1cc([N+](=O)[O-])ccc1OC
inactive: [1] 102 % of control | [2] 102 % of control | dose: 400.0 mg/kg/injection, schedule: Q04DX002 (ip), vehicle: saline 109 % of control

CN(C)/N=N\N(C)C
inactive: dose: 25.0 mg/kg/injection, schedule: Q01DX009 (ip), vehicle: Klucel (hydroxypropylcellulose) (HPC) 98 % of control | [3] 103 % of control | [4] 101 % of control

COc1ccc(/C=C/C(=O)c2ccc3cc(OC)c(OC)cc3c2)cc1OC
inactive: [5] 91 % of control | dose: 200.0 mg/kg/injection, schedule: Q04DX003 (ip), vehicle: saline 89 % of control | dose: 400.0 mg/kg/injection, schedule: Q04DX003 (ip), vehicle: saline 87 % of control

Cc1ccc(C)c2c3c(sc12)CCCC3
inactive: [6] 95 % of control | [7] 90 % of control | [8] 101 % of control

NC(N)=NCCCC(N)C(=O)NCCCCCCNC(=O)CCC(=O)NCCCCCCNC(=O)C(N)CCCN=C(N)N (stereo not drawn)
inactive: dose: 62.5 mg/kg/injection, schedule: Q01DX010 (ip), vehicle: saline 94 % of control | dose: 125.0 mg/kg/injection, schedule: Q01DX010 (ip), vehicle: saline 98 % of control | dose: 250.0 mg/kg/injection, schedule: Q01DX010 (ip), vehicle: saline 100 % of control | dose: 500.0 mg/kg/injection, schedule: Q01DX010 (ip), vehicle: saline 113 % of control

CCOC(O)C(F)(F)F (stereo not drawn)
inactive: dose: 50.0 mg/kg/injection, schedule: Q01DX015 (ip), vehicle: saline 93 % of control | [9] 98 % of control | dose: 100.0 mg/kg/injection, schedule: Q01DX009 (ip), vehicle: acetone 103 % of control | dose: 100.0 mg/kg/injection, schedule: Q01DX015 (ip), vehicle: saline 96 % of control | dose: 200.0 mg/kg/injection, schedule: Q01DX001 (ip), vehicle: saline 112 % of control | dose: 200.0 mg/kg/injection, schedule: Q01DX009 (ip), vehicle: acetone 102 % of control | dose: 200.0 mg/kg/injection, schedule: Q01DX015 (ip), vehicle: saline 88 % of control | dose: 400.0 mg/kg/injection, schedule: Q01DX001 (ip), vehicle: saline 102 % of control

O=C(O)c1c(-c2ccccc2)oc(-c2ccccc2)c1C(=O)O
inactive: [1] 105 % of control | [2] 94 % of control

O=C(C[n+]1ccccc1)N/N=C/c1ccccc1Cl
inactive: dose: 25.0 mg/kg/injection, schedule: Q01DX009 (ip), vehicle: saline with Tween-80 98 % of control | dose: 50.0 mg/kg/injection, schedule: Q01DX009 (ip), vehicle: saline with Tween-80 98 % of control | dose: 100.0 mg/kg/injection, schedule: Q01DX009 (ip), vehicle: saline with Tween-80 100 % of control

CN(C(=O)c1ccccc1C(=O)c1n[nH]c2ccccc12)c1ccccc1
inactive: dose: 50.0 mg/kg/injection, schedule: Q04DX002 (ip), vehicle: Klucel (hydroxypropylcellulose) (HPC) 104 % of control | dose: 100.0 mg/kg/injection, schedule: Q04DX002 (ip), vehicle: Klucel (hydroxypropylcellulose) (HPC) 97 % of control | dose: 200.0 mg/kg/injection, schedule: Q04DX002 (ip), vehicle: Klucel (hydroxypropylcellulose) (HPC) 104 % of control

COCc1nnc2ncnc(OC)c2n1
inactive: [10] 106 % of control | [11] 100 % of control | [12] 93 % of control | [13] 102 % of control | [9] 98 % of control | [14] 88 % of control | [5] 98 % of control

c1ccc(-c2ccccn2)nc1
inactive: dose: 100.0 mg/kg/injection, schedule: Q04DX002 (ip), vehicle: saline with Tween-80 107 % of control | dose: 200.0 mg/kg/injection, schedule: Q04DX002 (ip), vehicle: saline with Tween-80 101 % of control | dose: 400.0 mg/kg/injection, schedule: Q04DX002 (ip), vehicle: saline with Tween-80 114 % of control

C#CCN(C)C(C)=O
inactive: [10] 104 % of control | [11] 95 % of control | [12] 102 % of control | [13] 101 % of control | [14] 105 % of control | [5] 96 % of control and 101 % of control

O=C(Oc1ccc(Cl)cc1Cl)Oc1ccc(Cl)cc1Cl
inactive: dose: 50.0 mg/kg/injection, schedule: Q01DX001 (ip), vehicle: carboxymethylcellulose (CMC) 98 % of control | [3] 105 % of control | dose: 50.0 mg/kg/injection, schedule: Q04DX003 (ip), vehicle: Klucel (hydroxypropylcellulose) (HPC) 98 % of control | [6] 104 % of control | [4] 100 % of control | dose: 100.0 mg/kg/injection, schedule: Q04DX003 (ip), vehicle: Klucel (hydroxypropylcellulose) (HPC) 95 % of control | [7] 104 % of control | dose: 200.0 mg/kg/injection, schedule: Q01DX009 (ip), vehicle: Klucel (hydroxypropylcellulose) (HPC) 103 % of control | dose: 200.0 mg/kg/injection, schedule: Q04DX003 (ip), vehicle: Klucel (hydroxypropylcellulose) (HPC) 106 % of control | [8] 93 % of control

CCCCCCCCCCCCCCCC[N+]1(C)CCSCC1
inactive: dose: 0.78 mg/kg/injection, schedule: Q01DX009 (ip), vehicle: saline 104 % of control | dose: 1.56 mg/kg/injection, schedule: Q01DX009 (ip), vehicle: saline 111 % of control | dose: 3.13 mg/kg/injection, schedule: Q01DX009 (ip), vehicle: saline 114 % of control | [15] 104 % of control

CN(C)CCCN1c2ccccc2CCc2ccc(Cl)cc21
inactive: dose: 3.12 mg/kg/injection, schedule: Q01DX009 (ip), vehicle: saline 97 % of control | [15] 108 % of control | dose: 12.5 mg/kg/injection, schedule: Q01DX009 (ip), vehicle: saline 94 % of control | [10] 94 % of control | [11] 96 % of control | [12] 101 % of control | [13] 96 % of control

O=C(O)CCC(=O)c1ccc(C2CCCC2)c2ccccc12
inactive: [6] 91 % of control | [7] 93 % of control | [8] 89 % of control

C=CCNC(=O)N(CC=C)N=O
inactive: dose: 1.5 mg/kg/injection, schedule: Q01DX001 (ip), vehicle: carboxymethylcellulose (CMC) 102 % of control | dose: 3.0 mg/kg/injection, schedule: Q01DX001 (ip), vehicle: carboxymethylcellulose (CMC) 95 % of control | dose: 6.0 mg/kg/injection, schedule: Q01DX001 (ip), vehicle: carboxymethylcellulose (CMC) 96 % of control | dose: 12.0 mg/kg/injection, schedule: Q01DX001 (ip), vehicle: carboxymethylcellulose (CMC) 90 % of control | dose: 16.0 mg/kg/injection, schedule: Q01DX001 (ip), vehicle: carboxymethylcellulose (CMC) 102 % of control | dose: 31.0 mg/kg/injection, schedule: Q01DX001 (ip), vehicle: carboxymethylcellulose (CMC) 104 % of control | dose: 62.0 mg/kg/injection, schedule: Q01DX001 (ip), vehicle: carboxymethylcellulose (CMC) 100 % of control | dose: 125.0 mg/kg/injection, schedule: Q01DX001 (ip), vehicle: carboxymethylcellulose (CMC) 96 % of control

CCCCCCCN(CCCCCCC)CCC(=O)c1ccc2cc(Br)c3ccccc3c2c1
inactive: dose: 55.0 mg/kg/injection, schedule: Q01DX Z (ip), vehicle: methylcellulose (MC) 97 % of control | dose: 83.0 mg/kg/injection, schedule: Q01DX Z (ip), vehicle: methylcellulose (MC) 86 % of control | dose: 125.0 mg/kg/injection, schedule: Q01DX Z (ip), vehicle: methylcellulose (MC) 97 % of control
